Source: patent US11142519B2, “Pesticidally active pyrazole derivatives” (SYNGENTA PARTICIPATIONS AG, priority 2017, dated 2021)

What was measured:
Assay type in all cases: in vivo
Spodoptera littoralis = Spodoptera littoralis (Egyptian cotton leaf worm) cotton leaf disc spray test; settings: foliar, 72 h, application rate of 200 ppm, L1 larvae, 3 days after infestation, read-out: control (at least one of mortality, anti-feedant effect, growth inhibition)
Protocol: Spodoptera littoralis (Egyptian cotton leaf worm)
Cotton leaf discs were placed on agar in 24-well microtiter plates and sprayed with aqueous test solutions prepared from 10,000 ppm DMSO stock solutions. After drying the leaf discs were infested with five L1 larvae. The samples were assessed for mortality, anti-feedant effect, and growth inhibition in comparison to untreated samples 3 days after infestation. Control of Spodoptera littoralis by a test sample is when at least one of mortality, anti-feedant effect, and growth inhibition is higher than the untreated sample.

Plutella xylostella = Plutella xylostella (Diamond back moth) artificial diet test; settings: 120 h, application rate of 200 ppm, L2 larvae, 5 days after infestation, read-out: effect in at least one of the two categories (mortality or growth inhibition)
Protocol: Plutella xylostella (Diamond back moth):
24-well microtiter plates with artificial diet were treated with aqueous test solutions prepared from 10,000 ppm DMSO stock solutions by pipetting. After drying, the plates were infested with L2 larvae (10 to 15 per well). The samples were assessed for mortality and growth inhibition in comparison to untreated samples 5 days after infestation. The following compounds gave an effect of at least 80% in at least one of the two categories (mortality or growth inhibition) at an application rate of 200 ppm: 1, 2, 3, 4, 7 and 10.

Thrips tabaci = Thrips tabaci (Onion thrips) sunflower leaf disc spray test; settings: foliar, 144 h, application rate of 200 ppm, population of mixed ages, 6 days after infestation
Protocol: Thrips tabaci (Onion thrips):
(§1) Sunflower leaf discs were placed on agar in 24-well microtiter plates and sprayed with aqueous test solutions prepared from 10,000 ppm DMSO stock solutions. After drying the leaf discs were infested with a thrips population of mixed ages. The samples were assessed for mortality 6 days after infestation.

Tetranychus urticae = Tetranychus urticae (Two-spotted spider mite) bean leaf disc spray test; settings: foliar, 192 h, application rate of 200 ppm, 8 days after infestation, read-out: mortality on mixed population (mobile stages)
Protocol: Tetranychus urticae (Two-spotted spider mite):
as §1, with “Bean” for “Sunflower”, “discs” for “discs were placed”, “were” for “and”, “mite” for “thrips”, “on mixed population (mobile stages) 8” for “6”

Diabrotica balteata = Diabrotica balteata (Corn root worm) maize sprout spray test; settings: 96 h, application rate of 200 ppm, L2 larvae, 4 days after infestation, read-out: effect in at least one of the two categories (mortality or growth inhibition)
Protocol: Diabrotica balteata, (Corn root worm)
Maize sprouts, placed on an agar layer in 24-well microtiter plates were treated with aqueous test solutions prepared from 10,000 ppm DMSO stock solutions by spraying. After drying, the plates were infested with L2 larvae (6 to 10 per well). The samples were assessed for mortality and growth inhibition in comparison to untreated samples 4 days after infestation. The following compounds gave an effect of at least 80% in at least one of the two categories (mortality or growth inhibition) at an application rate of 200 ppm: 1, 2, 3 and 7.

Euschistus heros = Euschistus heros (Neotropical Brown Stink Bug) soybean leaf spray test; settings: 120 h, application rate of 200 ppm, N2 nymphs, 5 days after infestation, read-out: effect in at least one of the two categories (mortality or growth inhibition)
Protocol: Euschistus heros (Neotropical Brown Stink Bug)
Soybean leaves on agar in 24-well microtiter plates were sprayed with aqueous test solutions prepared from 10,000 ppm DMSO stock solutions. After drying the leaves were infested with N2 nymphs. The samples were assessed for mortality and growth inhibition in comparison to untreated samples 5 days after infestation. The following compounds gave an effect of at least 80% in at least one of the two categories (mortality or growth inhibition) at an application rate of 200 ppm: 1, 3 and 7.

Cn1nc(C(F)(F)C(F)(F)F)c(OC(F)F)c1-n1cc(-c2cc(C(=O)NC3(C#N)CC3)c(Cl)s2)nn1 [Example 10, 2-chloro-N-(1-cyanocyclopropyl)-5-[1-[4-(difluoromethoxy)-2-methyl-5-(1,1,2,2,2-pentafluoroethyl)pyrazol-3-yl]triazol-4-yl]thiophene-3-carboxamide]
≥ 80%: percent control (mortality, anti-feedant effect or growth inhibition) at 200 ppm (Spodoptera littoralis) | percent effect (mortality or growth inhibition) at 200 ppm (Plutella xylostella) | mortality at 200 ppm (Thrips tabaci)

Cn1nc(C(F)(F)C(F)(F)F)c(OC(F)F)c1-n1cc(-c2cc(C(=O)NC3(C#N)CC3)c(C#N)s2)nn1 [Example 4, 2-cyano-N-(1-cyanocyclopropyl)-5-[1-[4-(difluoromethoxy)-2-methyl-5-(1,1,2,2,2-pentafluoroethyl)pyrazol-3-yl]triazol-4-yl]thiophene-3-carboxamide]
≥ 80%: percent control (mortality, anti-feedant effect or growth inhibition) at 200 ppm (Spodoptera littoralis) | percent effect (mortality or growth inhibition) at 200 ppm (Plutella xylostella) | mortality at 200 ppm (Thrips tabaci) | mortality at 200 ppm (Tetranychus urticae)

Cn1nc(C(F)(F)C(F)(F)F)c(OC(F)F)c1-n1cc(-c2cc(C(=O)NC3CC3)c(Cl)s2)nn1 [Example 7, 2-chloro-N-cyclopropyl-5-[1-[4-(difluoromethoxy)-2-methyl-5-(1,1,2,2,2-pentafluoroethyl)pyrazol-3-yl]triazol-4-yl]thiophene-3-carboxamide]
≥ 80%: percent control (mortality, anti-feedant effect or growth inhibition) at 200 ppm (Spodoptera littoralis) | percent effect (mortality or growth inhibition) at 200 ppm (Plutella xylostella) | percent effect (mortality or growth inhibition) at 200 ppm (Diabrotica balteata) | mortality at 200 ppm (Thrips tabaci) | percent effect (mortality or growth inhibition) at 200 ppm (Euschistus heros)

CCN(C(=O)c1cc(-c2cn(-c3c(OC(F)F)c(C(F)(F)C(F)(F)F)nn3C)nn2)sc1C#N)C1CC1 [Example 3, 2-cyano-N-cyclopropyl-5-[1-[4-(difluoromethoxy)-2-methyl-5-(1,1,2,2,2-pentafluoroethyl)pyrazol-3-yl]triazol-4-yl]-N-ethyl-thiophene-3-carboxamide]
≥ 80%: percent control (mortality, anti-feedant effect or growth inhibition) at 200 ppm (Spodoptera littoralis) | percent effect (mortality or growth inhibition) at 200 ppm (Plutella xylostella) | percent effect (mortality or growth inhibition) at 200 ppm (Diabrotica balteata) | mortality at 200 ppm (Thrips tabaci) | mortality at 200 ppm (Tetranychus urticae) | percent effect (mortality or growth inhibition) at 200 ppm (Euschistus heros)

Cn1nc(C(F)(F)C(F)(F)F)c(OC(F)F)c1-n1cc(-c2cc(C(=O)NC3CC3)c(C#N)s2)nn1 [Example 1, 2-cyano-N-cyclopropyl-5-[1-[4-(difluoromethoxy)-2-methyl-5-(1,1,2,2,2-pentafluoroethyl)pyrazol-3-yl]triazol-4-yl]thiophene-3-carboxamide]
≥ 80%: percent control (mortality, anti-feedant effect or growth inhibition) at 200 ppm (Spodoptera littoralis) | percent effect (mortality or growth inhibition) at 200 ppm (Plutella xylostella) | percent effect (mortality or growth inhibition) at 200 ppm (Diabrotica balteata) | mortality at 200 ppm (Thrips tabaci) | mortality at 200 ppm (Tetranychus urticae) | percent effect (mortality or growth inhibition) at 200 ppm (Euschistus heros)

CN(C(=O)c1cc(-c2cn(-c3c(OC(F)F)c(C(F)(F)C(F)(F)F)nn3C)nn2)sc1C#N)C1CC1 [Example 2, 2-cyano-N-cyclopropyl-5-[1-[4-(difluoromethoxy)-2-methyl-5-(1,1,2,2,2-pentafluoroethyl)pyrazol-3-yl]triazol-4-yl]-N-methyl-thiophene-3-carboxamide]
≥ 80%: percent control (mortality, anti-feedant effect or growth inhibition) at 200 ppm (Spodoptera littoralis) | percent effect (mortality or growth inhibition) at 200 ppm (Plutella xylostella) | percent effect (mortality or growth inhibition) at 200 ppm (Diabrotica balteata) | mortality at 200 ppm (Thrips tabaci) | mortality at 200 ppm (Tetranychus urticae)
